Our source for the pest or weed control and inhibition in vivo values is patent publication US11696913B2, “Prolonged ectoparasite-controlling agent for animal” (MITSUI CHEMICALS AGRO, INC., priority 2017, dated 2023).

Assay [1] concerns Ctenocephalides felis. Kind of assay: In vitro contact test with fleas. As to conditions: read-out: insecticidal activity; for pest or weed control at 0.04 µg/cm2, 0.04 µg/cm2: dose 0.04 μg/cm^2, dead or moribund fleas after 48 h; for pest or weed control at 0.2 µg/cm2, 0.2 µg/cm2: dose 0.2 μg/cm^2, dead or moribund fleas after 48 h; for pest or weed control at 1 µg/cm2, 1 µg/cm2: dose 1 μg/cm^2, dead or moribund fleas after 48 h. The method, boiled down: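 Adult male and female cat fleas (5-10 per tube) placed in glass tubes coated with compound from acetone solution (900 ppm gives 5 μg/cm^2), kept at room temperature and ambient humidity. After 48 h, motionless or uncoordinated fleas scored dead or moribund; activity expressed as % dead or moribund.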

A further assay deals with Amblyomma americanum. Kind of assay: In vitro contact test with hard ticks (Amblyomma americanum nymphs). As to conditions: read-out: acaricidal activity; for pest or weed control at 0.2 µg/cm2, 0.2 µg/cm2: dose 0.2 μg/cm^2, 48 h; for pest or weed control at 1 µg/cm2, 1 µg/cm2: dose 1 μg/cm^2, 48 h. The method, boiled down:
(§1)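 Adult R. sanguineus, I. ricinus, D. variabilis or A. americanum nymphs exposed in glass vials coated with compound from acetone (900 ppm gives 5 μg/cm^2). Held 48 h at room temperature (R. sanguineus) or 21° C., 85% rel. hum.; then heated at 45-50° C. ≤5 min, motionless or uncoordinated ticks scored dead/moribund.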

A further assay deals with Rhipicephalus sanguineus. Put plainly: In vitro contact test with adult hard ticks (Rhipicephalus sanguineus). Particulars: read-out: acaricidal activity; for pest or weed control at 1 µg/cm2, 1 µg/cm2: dose 1 μg/cm^2, 48 h; for pest or weed control at 0.04 µg/cm2, 0.04 µg/cm2: dose 0.04 μg/cm^2, 48 h; for pest or weed control at 0.2 µg/cm2, 0.2 µg/cm2: dose 0.2 μg/cm^2, 48 h. The method, boiled down:
as §1

The test system of assay [2] is Rhipicephalus (Boophilus) microplus. Kind of assay: In vitro injection test with Rhipicephalus (Boophilus) microplus (BOOPMI Inj). As to conditions: 168 h, laid fertile eggs after 7 days, read-out: acaricidal activity; for pest or weed control at 32 ng: dose 0.032 μg/animal injected; for pest or weed control at 0.00016 mg: dose 0.16 μg/animal injected; for pest or weed control at 0.0008 mg: dose 0.8 μg/animal injected. In outline:
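Test substance in DMSO; 1 μl injected into abdomen of each of 5 engorged adult female ticks, then held at 28° C., 85% rel. hum. Activity scored after 7 days from laying of fertile eggs: 100% = no eggs or all infertile, 0% = all eggs fertile.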

The subject of assay [3] is Ctenocephalides felis. Kind of assay: Systemic treatment in-vivo test with cat flea on rats. As to conditions: Ctenocephalides felis, ip, intraperitoneal injection. In outline:
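Rats dosed intraperitoneally per body weight in glycerol formal (up to 25% NMP for poorly soluble compounds). 30 D. variabilis nymphs released on treatment day and weekly, 30 C. felis fleas 24 h later; live attached engorged ticks counted at 48 h (±4 h), live fleas at 24 h, efficacy versus placebo group.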

For the next assay, the system named is Spodoptera litura. Kind of assay: Insecticidal testing against common cutworm. It counts as in vivo. Particulars: foliar, 144 h, concentration 100 ppm, cabbage leaf dip, second-stage larvae, after 6 days, read-out: pesticidal rate. An excerpt: Insecticidal Testing Against Common Cutworm (Spodoptera litura)
A further assay deals with Plutella xylostella. Put plainly: Insecticidal testing against diamondback moth. Format: in vivo. Particulars: foliar, 144 h, concentration 100 ppm, cabbage leaf dip, third-stage larvae, after 6 days, read-out: pesticidal rate. An excerpt:
Insecticidal Testing Against Diamondback Moth (Plutella xylostella)

The next assay has as its system Laodelphax striatellus. Put plainly: Insecticidal testing against small brown planthopper. It counts as in vivo. Particulars: 144 h, concentration 100 ppm, sprayed rice seedlings, after 6 days, read-out: pesticidal rate. In outline: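 Acetone solution of compound at a set concentration sprayed onto rice seedlings, air-dried, then exposed to 10 planthoppers (one group). Held at 25° C; survival rate recorded after 6 days.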

The mark [4] stands for this setting: SD 2, read-out: Geometric mean percent reduction in live flea (Ctenocephalides felis) counts compared to untreated control rats.
The mark [5] stands for this setting: SD 9, read-out: Geometric mean percent reduction in live flea (Ctenocephalides felis) counts compared to untreated control rats.
[6] abbreviates: SD 16, read-out: Geometric mean percent reduction in live flea (Ctenocephalides felis) counts compared to untreated control rats.
Where [7] appears, read: SD 23, read-out: Geometric mean percent reduction in live flea (Ctenocephalides felis) counts compared to untreated control rats.
Where [8] appears, read: SD 30, read-out: Geometric mean percent reduction in live flea (Ctenocephalides felis) counts compared to untreated control rats.

Like-named read-outs stand apart in the source and are kept apart here.

Consider `CN(C(=O)c1ccc(F)cc1)c1cccc(C(=O)Nc2c(I)cc(C(F)(C(F)(F)F)C(F)(F)F)cc2C(F)(F)F)c1F` [Compound 24], for which the pest or weed control at 0.04 µg/cm2, 0.04 µg/cm2 in the assay on Ctenocephalides felis [1] was 95%. The pest or weed control at 0.2 µg/cm2, 0.2 µg/cm2 in the assay on Ctenocephalides felis [1] came out at 95%; with Amblyomma americanum, 90%. Besides, the pest or weed control at 1 µg/cm2, 1 µg/cm2 with Ctenocephalides felis [1] was found to be 95%; in the assay with Amblyomma americanum it was 90%; in the assay with Rhipicephalus sanguineus it was 90%. For the same compound, in assay [2], the pest or weed control at 32 ng stood at 100%. Besides, the pest or weed control at 0.00016 mg in assay [2] was determined as 100%. For the same compound, the pest or weed control at 0.0008 mg in assay [2] worked out at 100%. The inhibition in vivo at 5 mg/kg in the assay with Ctenocephalides felis [3] (setting [4]) was found to be 100%; with Ctenocephalides felis [3] (setting [5]), 99%; in the assay with Ctenocephalides felis [3] (setting [6]), 99%; in the assay with Ctenocephalides felis [3] (setting [7]), 36%.
Regarding `CN(C(=O)c1ccc(F)cc1)c1cccc(C(=O)Nc2c(I)cc(C(F)(C(F)(F)F)C(F)(F)F)cc2OC(F)(F)F)c1F` [Compound 74], the pest or weed control at 0.04 µg/cm2, 0.04 µg/cm2 in the assay with Ctenocephalides felis [1] amounted to 95%; in the assay on Rhipicephalus sanguineus, 90%. Further, the pest or weed control at 0.2 µg/cm2, 0.2 µg/cm2 amounted to 95% with Ctenocephalides felis [1], 90% with Amblyomma americanum and 90% in the assay on Rhipicephalus sanguineus. The pest or weed control at 1 µg/cm2, 1 µg/cm2 with Ctenocephalides felis [1] is 95%; with Amblyomma americanum, 90%; with Rhipicephalus sanguineus, 90%. In addition, in assay [2], the pest or weed control at 32 ng is 100%. Also, the pest or weed control at 0.00016 mg in assay [2] was 100%. Besides, in assay [2], the pest or weed control at 0.0008 mg was 100%. In addition, the inhibition in vivo at 10 mg/kg stood at 91% in the assay with Ctenocephalides felis [3] (setting [4]); 96% in the assay with Ctenocephalides felis [3] (setting [5]); 86% with Ctenocephalides felis [3] (setting [6]); 89% with Ctenocephalides felis [3] (setting [7]); 78% in the assay with Ctenocephalides felis [3] (setting [8]). The pest or weed control at 100 ppm in the assay on Spodoptera litura, in the assay with Plutella xylostella and with Laodelphax striatellus was no less than 70% each time.
`CN(C(=O)c1ccc(C(F)(F)F)nc1)c1cccc(C(=O)Nc2c(I)cc(C(F)(C(F)(F)F)C(F)(F)F)cc2C(F)(F)F)c1F` [Compound 66, N-(2-fluoro-3-((2-iodo-4-(perfluoropropan-2-yl)-6-(trifluoromethyl)phenyl)carbamoyl)phenyl)-N-methyl-6-(trifluoromethyl)nicotinamide]: the pest or weed control at 0.2 µg/cm2, 0.2 µg/cm2 was found to be 95% in the assay with Ctenocephalides felis [1] and 90% with Rhipicephalus sanguineus. In addition, the pest or weed control at 1 µg/cm2, 1 µg/cm2 was determined as 95% with Ctenocephalides felis [1] and 90% in the assay on Rhipicephalus sanguineus. The pest or weed control at 0.00016 mg in assay [2] is 100%. Moreover, in assay [2], the pest or weed control at 0.0008 mg was determined as 100%. For the same compound, the inhibition in vivo at 10 mg/kg in the assay with Ctenocephalides felis [3] (setting [4]) came out at 100%; with Ctenocephalides felis [3] (setting [5]), 100%; with Ctenocephalides felis [3] (setting [6]) it was 100%; in the assay on Ctenocephalides felis [3] (setting [7]), 100%; in the assay with Ctenocephalides felis [3] (setting [8]) it was 79%. The pest or weed control at 100 ppm in the assay with Spodoptera litura, in the assay with Plutella xylostella and in the assay on Laodelphax striatellus was no less than 70% in each case.
On to `O=C(Nc1cccc(C(=O)Nc2c(I)cc(C(F)(C(F)(F)F)C(F)(F)F)cc2C(F)(F)F)c1F)c1ccc(C(F)(F)F)nc1` [Compound 67, N-(2-fluoro-3-((2-iodo-4-(perfluoropropan-2-yl)-6-(trifluoromethyl)phenyl)carbamoyl)phenyl)-6-(trifluoromethyl)nicotinamide], for which the pest or weed control at 0.04 µg/cm2, 0.04 µg/cm2 in the assay on Ctenocephalides felis [1] came out at 95%; in the assay on Rhipicephalus sanguineus, 90%. The pest or weed control at 0.2 µg/cm2, 0.2 µg/cm2 with Ctenocephalides felis [1] came out at 95%; in the assay with Amblyomma americanum it was 90%; in the assay on Rhipicephalus sanguineus, 90%. Also, the pest or weed control at 1 µg/cm2, 1 µg/cm2 was 95% with Ctenocephalides felis [1], 90% with Amblyomma americanum and 90% with Rhipicephalus sanguineus. In addition, in assay [2], the pest or weed control at 0.00016 mg was found to be 100%. Moreover, the pest or weed control at 0.0008 mg in assay [2] was 100%. Moreover, the inhibition in vivo at 2 mg/kg in the assay with Ctenocephalides felis [3] (setting [4]) turned out to be 100%; in the assay on Ctenocephalides felis [3] (setting [5]) it was 96%; in the assay with Ctenocephalides felis [3] (setting [6]), 78%; in the assay on Ctenocephalides felis [3] (setting [7]) it was 11%. The inhibition in vivo at 10 mg/kg in the assay on Ctenocephalides felis [3] (setting [4]) was 100%; in the assay on Ctenocephalides felis [3] (setting [5]), 100%; with Ctenocephalides felis [3] (setting [6]), 93%; in the assay on Ctenocephalides felis [3] (setting [7]) it was 61%; with Ctenocephalides felis [3] (setting [8]), 58%. For the same compound, the pest or weed control at 100 ppm in the assay with Spodoptera litura, in the assay on Plutella xylostella and in the assay with Laodelphax striatellus was no less than 70% each time.
On to `CN(C(=O)c1ccc(F)cc1)c1cccc(C(=O)Nc2c(I)cc(C(F)(C(F)(F)F)C(F)(F)C(F)(F)F)cc2C(F)(F)F)c1F` (stereo not drawn) [Compound 37], for which the pest or weed control at 0.04 µg/cm2, 0.04 µg/cm2 in the assay with Ctenocephalides felis [1] amounted to 95%. In addition, the pest or weed control at 0.2 µg/cm2, 0.2 µg/cm2 in the assay with Ctenocephalides felis [1] was found to be 95%; with Amblyomma americanum, 90%; in the assay with Rhipicephalus sanguineus, 90%. For the same compound, the results for the pest or weed control at 1 µg/cm2, 1 µg/cm2 in the assay with Ctenocephalides felis [1], in the assay with Amblyomma americanum and with Rhipicephalus sanguineus were 95%, 90% and 90%, respectively. The pest or weed control at 6.4 ng in assay [2] (dose 0.0064 μg/animal injected) was determined as 100%. Moreover, in assay [2], the pest or weed control at 32 ng stood at 100%. In addition, the pest or weed control at 0.00016 mg in assay [2] came out at 100%. The pest or weed control at 0.0008 mg in assay [2] turned out to be 100%. In addition, the inhibition in vivo at 10 mg/kg in the assay with Ctenocephalides felis [3] (setting [4]) came to 100%; in the assay on Ctenocephalides felis [3] (setting [5]) it was 97%; with Ctenocephalides felis [3] (setting [6]) it was 97%; with Ctenocephalides felis [3] (setting [7]), 100%; with Ctenocephalides felis [3] (setting [8]), 80%.
`CN(C(=O)c1ccc(C(F)(F)F)nc1)c1cccc(C(=O)Nc2c(I)cc(C(F)(C(F)(F)F)C(F)(F)C(F)(F)F)cc2C(F)(F)F)c1F` (stereo not drawn) [Compound 119]: the pest or weed control at 0.04 µg/cm2, 0.04 µg/cm2 with Ctenocephalides felis [1] amounted to 95%. Further, the pest or weed control at 0.2 µg/cm2, 0.2 µg/cm2 with Ctenocephalides felis [1] came out at 95%. For the same compound, the pest or weed control at 1 µg/cm2, 1 µg/cm2 is 95% in the assay with Ctenocephalides felis [1] and 90% with Amblyomma americanum. Also, in assay [2], the pest or weed control at 32 ng stood at 100%. Moreover, the pest or weed control at 0.00016 mg in assay [2] worked out at 100%. In addition, the pest or weed control at 0.0008 mg in assay [2] was 100%. Moreover, the inhibition in vivo at 10 mg/kg came to 100% in the assay on Ctenocephalides felis [3] (setting [4]); 97% in the assay on Ctenocephalides felis [3] (setting [5]); 94% with Ctenocephalides felis [3] (setting [6]); 62% in the assay on Ctenocephalides felis [3] (setting [7]); 44% with Ctenocephalides felis [3] (setting [8]). Moreover, the pest or weed control at 100 ppm with Spodoptera litura, in the assay with Plutella xylostella and in the assay on Laodelphax striatellus was no less than 70% throughout.
